Data on 1 compound can be found in US20240335402A1, “BIODEGRADABLE ANTI-INFECTIVE FORMULATIONS” (New Mexico Tech University Research Park Corporation, priority 2023, published 2024).

The subject of the test is colistin (polymyxin E, or PME) resistant bacterium S. maltophilia. Kind of test: Spot test on lawn of colistin resistant bacterium. The test is classed as cell-based. Conditions: 10 μL spotted, 37° C., 2 days.

Take `O=C(O)CC[C@@H](C(=O)O)N(CC(=O)O)CC(=O)O` [GLDA, N,N-Dicarboxymethyl glutamic acid]: the “activity / kill of S. maltophilia lawn” value is “did not work as well as CTAC”.
